Reference: PubChem BioAssay (NCI)
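Grown in 96-well plates, cells were treated for 48 hours with each compound at five concentrations. Insufficient inhibition: endpoint recorded as highest concentration tested. TGI denotes the concentration required for complete inhibition of growth.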 Where a SMILES comes first, the peptide text is derived from it. The star is where a group is joined. Cbz = O=C(OCc1ccccc1)*

Experiments:
Test in all cases: NCI-60 cell line screen, 48 h
[1] = tested on: A498 renal
[2] = tested on: ACHN renal
[3] = tested on: COLO 205 colon
[4] = tested on: DU-145 prostate
[5] = tested on: HCC-2998 colon
[6] = tested on: LOX IMVI melanoma
[7] = tested on: MCF7 breast
[8] = tested on: MDA-MB-435
[9] = tested on: NCI-H460 lung
[10] = tested on: NCI-H522 lung
[11] = tested on: PC-3 prostate
[12] = tested on: SK-MEL-5 melanoma
[13] = tested on: UO-31 renal
[14] = tested on: HS 578T breast
[15] = tested on: SNB-75 CNS

| Structure (SMILES) | TGI [1] [µM] | TGI [2] [µM] | TGI [3] [µM] | TGI [4] [µM] | TGI [5] [µM] | TGI [6] [µM] | TGI [7] [µM] | TGI [8] [µM] | TGI [9] [µM] | TGI [10] [µM] | TGI [11] [µM] | TGI [12] [µM] | TGI [13] [µM] | TGI [14] [µM] | TGI [15] [µM] |
| --- | --- | --- | --- | --- | --- | --- | --- | --- | --- | --- | --- | --- | --- | --- | --- |
| CN(C)/C=C/c1ccncc1 | > 100 | > 100 | > 100 | > 100 | > 100 | > 100 | > 100 | > 100 | > 100 | > 100 | > 100 | > 100 | > 100 |  |  |
| COc1cccc(C[C@H]2COC(=O)[C@]2(O)Cc2cccc(OC)c2)c1 | > 100 | > 100 | > 100 | > 100 | > 100 | > 100 |  | > 100 | > 100 | > 100 | > 100 | > 100 | > 100 | > 100 | > 100 |
| N#CC(NNC(=O)c1ccccc1O)c1ccccc1 (stereo unspecified) |  | > 100 | > 100 |  |  | > 100 |  |  | > 100 | 52.2 |  | > 100 | 6.03 |  | > 100 |
| CCCCc1ccc(Nc2nc(N)c3ncn(COCCO)c3n2)cc1 | 88.7 | 65.6 | 43.8 | > 100 | 48.9 | 37.4 | > 100 | 51.2 |  | 69.7 |  | 32.7 | > 100 | 75 | 80.4 |
| COc1cc(-c2oc(C=Nc3ccccc3)c([N+](=O)[O-])c2-c2ccc(O)c(OC)c2)ccc1O |  | 32 | > 63.2 | 53.3 | 30.5 | > 100 | > 100 | > 85.9 | 35.5 | 30.2 | > 64.5 | > 79.5 | 29.6 | > 100 | 64.4 |
| COc1ccc2nc3ccc(OC)cc3c(SCC3CO3)c2c1 (stereo unspecified) | > 100 | 21.7 | 41.8 |  | 29.7 | 33.4 | 26.6 | 40 | 31 | 33.2 | 28.6 | 33.5 | 24.8 |  | > 100 |
| CCN(CC)CCC(=O)c1ccc(Oc2ccccc2)cc1 |  | 29.3 | 32.1 | 71.2 | 35.6 | 31.3 | 38.5 | 40.2 |  |  | > 100 |  |  | 52.6 | 52 |
| C/C(=N/NC(=S)NCCc1ccccn1)c1cnccn1 |  | > 100 | > 100 | > 100 | > 100 | 40.1 |  | > 100 | > 100 | > 100 | > 100 | > 100 | 90.2 | > 100 | > 100 |
| COc1cc(C2c3cc4c(cc3OC(NCc3ccccc3)C2C)OCO4)cc(OC)c1OC (stereo unspecified) | > 100 | > 39.8 | 0.726 | > 100 | 4 | 17.2 | 48.7 |  | > 34.7 | 4.02 |  | 1.78 | 26.4 |  |  |
| COc1cc(C2(O)c3ccccc3C3=NCCN32)cc(OC)c1OC (stereo unspecified) | > 100 | > 100 | > 100 | > 100 | > 100 | > 100 |  | > 100 | > 100 |  | > 100 | > 100 | > 100 | > 100 | > 100 |
| COc1ccc2c(c1)N=C1CSC(c3c(Cl)cccc3[N+](=O)[O-])N1C2 (stereo unspecified) |  | > 100 | > 100 |  | 47.7 | > 100 | > 100 | > 100 | 62.9 | > 100 | > 100 | 39.5 | > 100 | > 100 | 98.5 |
| O=C(CC(C(=O)c1cccs1)c1ccsc1)c1ccco1 (stereo unspecified) | 64 | 99.2 | 95.5 | > 100 | > 100 | > 100 | 42.3 | 40.6 | 81.9 | 54.1 |  | > 100 | 59 | 47 | 84.4 |
| Clc1ccccc1-c1nnc2c(-c3ccccc3)nc3ccccc3n12 | > 100 | > 100 | > 100 | > 100 | > 100 | > 100 | > 100 | > 100 | > 100 |  | > 100 | > 100 |  |  |  |
| O=C1NC(=NC2CCCCC2)C2(CCN(CCCC3(c4ccc(F)cc4)OCCO3)CC2)N1c1ccccc1 |  | 28.4 | 38.4 | 33.8 |  | 39 | 48.3 | 42.5 |  | 34.1 | 38.4 | 28.2 | 25.9 | 35 | 29.8 |
| N#C/C(=C\c1ccc(Br)cc1)c1nc(-c2cc3ccccc3oc2=O)cs1 |  | 26.1 | > 50 | > 50 | > 50 | > 50 | > 50 | > 50 | > 50 | 16.1 | > 50 | > 50 | > 50 | 41.1 | 30.6 |
| O=S1c2ccccc2SCSc2ccccc21 | > 100 | > 100 | > 100 | > 100 | > 100 |  | > 100 |  | > 100 | > 100 | > 100 | > 100 | > 100 |  |  |
| CC(C)(C)c1cc(C(=O)/C=C/c2ccc3c(c2)CCO3)cc(C(C)(C)C)c1O | 24.4 | > 100 | 1.58 |  | 3.8 | > 100 | > 100 | 0.91 | 1.92 | 2.16 | 4.8 | 6.65 | > 54 | > 29.5 |  |
| Cc1ccc(S(=O)(=O)c2c3[nH]c4ccccc4nc3n3c2nc2ccccc23)cc1 | > 100 | > 100 | > 100 |  | > 100 | > 100 |  |  | > 100 | > 100 |  | > 100 | > 100 |  | > 100 |

| Structure (SMILES) | TGI [1] [µM] | TGI [2] [µM] | TGI [3] [µM] | TGI [4] [µM] | TGI [5] [µM] | TGI [6] [µM] | TGI [7] [µM] | TGI [8] [µM] | TGI [9] [µM] | TGI [10] [µM] | TGI [11] [µM] | TGI [12] [µM] | TGI [13] [µM] | TGI [14] [µM] | TGI [15] [µM] |
| --- | --- | --- | --- | --- | --- | --- | --- | --- | --- | --- | --- | --- | --- | --- | --- |
| CN(C)c1ccc(N=Nc2cccc3ncccc23)cc1 |  | > 100 | > 100 | > 100 | > 100 | > 100 | > 100 | > 79.8 | > 100 | > 73.8 | > 100 | 61.2 | > 100 | > 100 | > 100 |
| COc1ccc(CCc2ccccc2CC(=O)O)cc1 | > 100 | > 100 | > 100 |  | > 100 | > 100 |  |  | > 100 | > 100 |  | > 100 | > 100 |  | > 100 |
| CCOC(=O)C(CC(=O)OC)NC(=O)C(CC(=O)OC)NC(=O)C(CC(=O)OC)NC(=O)C(CC(=O)OC)NC(=O)OCc1ccccc1 (stereo unspecified) (Cbz-D(OMe)D(OMe)D(OMe)D(OMe)-OEt; configuration not given here) | > 100 | > 100 | > 100 |  | > 100 |  | > 100 |  | > 100 |  | > 100 | > 100 | > 100 | > 100 | > 100 |
| CCCCCCCSCC1C(=O)C23C(O)C1CCC2C12COC3(O)C(O)C1C(C)(C)CCC2O (stereo unspecified) | 26.9 | 24.9 | 15.1 |  | 31.4 | 29.2 |  |  | 29.8 | 3.04 |  | 25.1 | 23.5 |  | 49.2 |
| CC1SC(=O)SC1C (stereo unspecified) |  | > 100 | > 100 |  | > 100 |  | > 100 | > 100 | > 100 | > 100 | > 100 | > 100 | > 100 | > 100 | > 100 |
| CC1=NN(C(=O)c2ccc(Cl)cc2)C(=O)/C1=C/c1ccc(O)cc1 | > 100 | > 100 | > 100 |  | > 100 | > 100 |  |  | > 100 | > 100 |  | > 100 | > 100 |  |  |
| C=CCCCCCC(O)C(O)C/C=C\C/C=C\CC (stereo unspecified) |  | > 18.8 | > 18.8 |  | > 18.8 | > 18.8 |  |  | > 18.8 | > 18.8 |  | > 18.8 | > 18.8 |  | > 18.8 |
| Clc1ccc(-c2nnc(C34CC5CC(CC(C5)C3)C4)o2)cc1 | > 100 | > 100 | > 100 | > 100 | > 100 | > 100 |  | > 100 | > 100 | > 100 | > 100 | > 100 | 14.6 | > 100 | > 100 |
| CN(C)CCCNc1ccc2nnn3c4ccc(OC(=O)c5ccc([N+](=O)[O-])cc5)cc4c(=O)c1c23 | 49.1 | 14.1 | 18.2 | 18.3 | 25.5 | > 100 | > 38.9 | 20.2 | 17.9 | 24 | 17.5 |  | 21 | 34.8 |  |
| CN(C)CCNC(=O)c1cc(-c2nccn2C)nc2ccccc12 | > 100 | > 100 | > 100 | > 100 | > 100 | > 100 | > 100 | > 100 | > 100 | > 100 | > 100 | > 100 | > 100 |  | > 100 |
| O=C(NCC(C(=O)OCc1ccccc1)C(=O)OCc1ccccc1)OCc1ccccc1 |  | > 100 | > 100 | > 100 | > 100 |  | > 100 | > 100 | > 100 | > 100 | > 100 | > 100 | > 100 | > 100 | > 100 |
| Fc1ccc(Nc2nnc(-c3ccccn3)s2)cc1 | > 100 | > 100 | > 100 | > 100 |  | > 100 | > 100 | > 100 | > 100 | > 100 | > 100 | > 100 |  | > 100 |  |
| Nc1ccccc1OCc1cc(=O)c(OCc2ccccc2)co1 |  | > 100 | 44.9 | > 100 |  | > 100 | 89 | > 100 | > 100 |  | > 100 | > 100 |  |  |  |
| C/C(=N\NC(=S)NNC(=S)N(C)c1ccccc1)c1ccccn1 |  | > 53.6 | > 100 | > 100 | > 100 |  | > 100 | 25.6 | 29.5 |  |  |  | 7.59 | > 100 | > 100 |
| CCOC(=O)c1nc2ccccc2nc1Oc1ccc(OC)cc1 | > 100 | > 100 | > 100 | > 100 |  | > 100 | > 100 | > 100 | > 100 | > 100 | > 100 | > 100 | > 100 | > 100 |  |
| COc1ccc([C@H](NC(=O)c2ccccc2)[C@@H](O)C(=O)O[C@H]2C[C@@]3(O)C(OC(=O)c4ccccc4)C4[C@](C)(C(=O)[C@H](OC(C)=O)C(=C2C)C3(C)C)[C@@H](O)C[C@H]2OC[C@@]42OC(C)=O)cc1 (stereo partly specified) |  | > 10 | 0.0123 | 0.00657 | 0.091 | > 10 | > 10 |  | > 10 |  |  | > 10 |  | 0.0122 | 0.0589 |
| O=C(NCCN1CCCC1)c1cn2c(ccc3sc4ccccc4c(=O)c32)n1 | 33.1 | 21.2 | 26.7 | 26.3 | 18.6 | 3.4 |  | > 56.6 | 18.6 | 27.4 | 27.4 | 31.2 | 26.4 | 33.3 | 34.1 |
| CSC(=S)OC1C(CO[Si](C)(C)C(C)(C)C)OC2OC(C)(C)OC21 (stereo unspecified) | 43.4 | 31.3 | 36.1 | > 100 | 49 | 32 | 29.8 | > 100 | 32.8 | 31.3 | 38.4 | 30.4 | 32 |  | > 100 |
